Laboratory results from patent US4578489A (priority 1982, dated 1986).
Read-outs that look alike come from different tables or passages of the source.

Assays:
Proteus vulgaris = assay: Minimum inhibitory concentration against bacteria, strain A; assay type: cell-based; conditions: 24 hours at 30° C.; tested at 100 and 300 mg/liter
Procedure: (§1) Overnight cultures, grown in Caso peptone bouillon (Merck) of the various strains of bacteria: (A) Proteus vulgaris, (B) Pseudomonas aeruginosa, (C) Enterobacter aerogenes, (D) Serratia marcencens, (E) Alcaligenes denitrificans and (F) Bacillus subtilis are each diluted in a ratio of 1/1000 in saline solution. Sufficient of the suspensions is put into Caso peptone bouillon to dilute the bacteria again in the ratio of 1/1000. Each of the compounds listed in Table 1 is then added in amounts of 100 and 300 mg/liter. After being incubated for 24 hours at 30° C. in a shaking waterbath, the turbidity of the samples is evaluated.

Pseudomonas aeruginosa = assay: Minimum inhibitory concentration against bacteria, strain B; assay type: cell-based; conditions: 24 hours at 30° C.; tested at 100 and 300 mg/liter
Procedure: as §1

Enterobacter aerogenes = assay: Minimum inhibitory concentration against bacteria, strain C; assay type: cell-based; conditions: 24 hours at 30° C.; tested at 100 and 300 mg/liter
Procedure: as §1

Serratia marcencens = assay: Minimum inhibitory concentration against bacteria, strain D; assay type: cell-based; conditions: 24 hours at 30° C.; tested at 100 and 300 mg/liter
Procedure: as §1

[1] = test system: Alcaligenes denitrificans; assay: Minimum inhibitory concentration against bacteria, strain E; assay type: cell-based; conditions: 24 hours at 30° C.; tested at 100 and 300 mg/liter
Procedure: as §1

Bacillus subtilis = assay: Minimum inhibitory concentration against bacteria, strain F; assay type: cell-based; conditions: 24 hours at 30° C.; tested at 100 and 300 mg/liter
Procedure: as §1

Aspergillus niger = assay: Minimum inhibitory concentration against fungi, agar incorporation test, strain K; assay type: cell-based; conditions: malt extract/agar
Procedure: (§2) The invention is carried out using the known agar incorporation test in the following fungi:
(§3) in a malt extract/agar (Merck). Inhibition is effected by adding sufficient of each of the various compounds to give final concentrations in the agar of 2, 5, 10, 50 and 100 mg/liter. The concentrations (mg/liters) required to inhibit the growth of the fungi (starting from traces of fungi added dropwise) are illustrated in Table 3.

Aspergillus phoenicis = assay: Minimum inhibitory concentration against fungi, agar incorporation test, strain L; assay type: cell-based; conditions: malt extract/agar
Procedure: as §2
(L) Aspergillus phoenicis
as §3

Penicillium funiculosum = assay: Minimum inhibitory concentration against fungi, agar incorporation test, strain M; assay type: cell-based; conditions: malt extract/agar
Procedure: as §2
(M) Penicillium funiculosum
as §3

Alternaria alternata = assay: Minimum inhibitory concentration against fungi, agar incorporation test, strain N; assay type: cell-based; conditions: malt extract/agar
Procedure: as §2, §3

[2] = test system: Cladosporium cladosporioides; assay: Minimum inhibitory concentration against fungi, agar incorporation test, strain O; assay type: cell-based; conditions: malt extract/agar
Procedure: as §2
(O) Cladosporium cladosporioides
as §3

Candida albicans = assay: Minimum inhibitory concentration against fungi, agar incorporation test, strain P; assay type: cell-based; conditions: malt extract/agar
Procedure: as §2, §3

Endomyces geotrichum = assay: Minimum inhibitory concentration against fungi, agar incorporation test, strain Q; assay type: cell-based; conditions: malt extract/agar
Procedure: as §2, §3

Aureobasidium pullulans = assay: Minimum inhibitory concentration against fungi, agar incorporation test, strain R; assay type: cell-based; conditions: malt extract/agar
Procedure: as §2
(R) Aureobasidium pullulans
as §3

Chaetomium globosum = assay: Minimum inhibitory concentration against fungi, agar incorporation test, strain S; assay type: cell-based; conditions: malt extract/agar
Procedure: as §2, §3

Chlorella vulgaris = assay: Action against algae: Chlorella vulgaris; assay type: cell-based; set-up: key: --: no growth on the agar, 3 ppm have destroyed the algae in 6 hours; conditions: 3 mg/liter; for Growth on the agar (algae-destroying action): 6 hours exposure, 14 days incubation; for Growth in the medium (growth inhibition): 14 days
Procedure: Cultures of Chlorella vulgaris which had been grown for 14 days in algae nutrient media are diluted in the ratio 1/200 in the algae nutrient medium. Each of the compounds listed in Table 1 is then added in such an amount as to give a final concentration of 3 mg/liter. After incubating for 6 hours, 10 μl of each culture are withdrawn and added dropwise to algae/agar in order to determine the destructive action. After the cultures have incubated for 14 days under illumination (14 hours of light and 10 hours of darkness, alternately), the growth in the algae medium (determination of growth inhibition) and on the algae/agar (determination of algae-destroying action) is assessed visually.

[3] = test system: mixed culture of bacteria; assay type: cell-based; set-up: key: +: growth, no destruction; (+): growth less than that of control (>10 colonies), slight destruction; (-): slight growth (1-10 colonies); -: no growth, destruction
[4] = test system: Enteromorpha intestinalis; assay: Action against Enteromorpha intestinalis: destruction (minimum killing concentration); assay type: in vivo; conditions: 4 hours in seawater, then 6-8 weeks in fresh seawater
Procedure: (§4) The action against the green alga Enteromorpha, which is the most important in seawter fouling, is investigated in sterile-filtered seawater containing an Erd-Schreiber solution. This solution is composed of a nutrient extract, phosphate and nitrate. The incubation of Enteromorpha intestinalis is carried out in a light thermostat at 18° C. under an alternation of 14 hours of light and 10 hours of darkness.
The algae which have been cultured in this way are exposed to the products under investigation for a short time (4 hours) in seawater. The minimum killing concentration (MKC) is determined by taking the algae out of the seawater containing a specific quantity of algicide, after the treatment time in the latter, washing the algae and investigating growth or mortality after incubation in fresh seawater for a further period of 6-8 weeks.
The minimum killing concentration (MKC) indicates the amount of substance required to cause such damage to the algae within a specific time that they can no longer recover in fresh seawater and die out.

[5] = test system: Enteromorpha intestinalis; assay: Action against Enteromorpha intestinalis: inhibitory concentration (MIC); assay type: in vivo; conditions: seawater containing biocide for entire test; concentration tested 0.5 mg/liter
Procedure: as §4
For determining the inhibitory concentration (MIC), the algae are kept in seawater containing biocide for the entire duration of the test (concentration tested: 0.5 mg/liter).

Artemia salina = assay: Action against Artemia salina nauplii; assay type: in vivo; set-up: key: 0: no change; 1: slight change; 1-2: animals are attacked; 2: animals are strongly attacked; 2-3: animals are nearly all dead; 3: animals are all dead
Procedure: The eggs, which are available commercially, are caused to hatch by vigorous aeration. When 2-3 days old, the nauplii are exposed to the products at various concentrations (concentrations tested: 2.5; 1; 0.5 and 0.25 mg/liter) in synthetic seawater, and are observed over a prolonged period of time.

## CCCCCCCCCCCC[N+](C)(C)C.CCC[CH2][Sn-]([Cl])([Cl])([CH2]CCC)[CH2]CCC [Example 16, (CH3)3 NC12 H25 / Tributyldichloro]
Proteus vulgaris
  MIC against bacteria, strain A: 100 mg/L
Pseudomonas aeruginosa
  MIC against bacteria, strain B: 100 mg/L
Enterobacter aerogenes
  MIC against bacteria, strain C: 100 mg/L
Serratia marcencens
  MIC against bacteria, strain D: 100 mg/L
[1]
  MIC against bacteria, strain E: 100 mg/L
Bacillus subtilis
  MIC against bacteria, strain F: 100 mg/L
Aspergillus niger
  MIC against fungi, strain K: 2 mg/L
Aspergillus phoenicis
  MIC against fungi, strain L: 2 mg/L
Penicillium funiculosum
  MIC against fungi, strain M: 5 mg/L
Alternaria alternata
  MIC against fungi, strain N: 2 mg/L
[2]
  MIC against fungi, strain O: 2 mg/L
Candida albicans
  MIC against fungi, strain P: 5 mg/L
Endomyces geotrichum
  MIC against fungi, strain Q: 50 mg/L
Aureobasidium pullulans
  MIC against fungi, strain R: 2 mg/L
Chaetomium globosum
  MIC against fungi, strain S: 2 mg/L
Chlorella vulgaris
  Growth on the agar (algae-destroying action): --
  Growth in the medium (growth inhibition): --

## CCCCCCCCCCCCCCCC[n+]1ccccc1.CCC[CH2][Sn-]([Cl])([Cl])([CH2]CCC)[CH2]CCC [Example 7, Pyridine-Nhexadecyl / Tributyldichloro]
Proteus vulgaris
  MIC against bacteria, strain A: 100 mg/L
Pseudomonas aeruginosa
  MIC against bacteria, strain B: 100 mg/L
Enterobacter aerogenes
  MIC against bacteria, strain C: 100 mg/L
Serratia marcencens
  MIC against bacteria, strain D: 100 mg/L
[1]
  MIC against bacteria, strain E: 100 mg/L
Bacillus subtilis
  MIC against bacteria, strain F: 100 mg/L
[3]; 5 mg/l, culture diluted 1/1000 in Tyrode
  Growth (destruction of a mixed culture of bacteria): +
[3]; 5 mg/l, culture diluted 1/10000 in Tyrode
  Growth (destruction of a mixed culture of bacteria): +
[3]; 10 mg/l, culture diluted 1/1000 in Tyrode
  Growth (destruction of a mixed culture of bacteria): +
[3]; 10 mg/l, culture diluted 1/10000 in Tyrode
  Growth (destruction of a mixed culture of bacteria): (+) (growth less than that of control (>10 colonies), slight destruction)
[3]; 30 mg/l, culture diluted 1/1000 in Tyrode
  Growth (destruction of a mixed culture of bacteria): (+) (growth less than that of control (>10 colonies), slight destruction)
[3]; 30 mg/l, culture diluted 1/10000 in Tyrode
  Growth (destruction of a mixed culture of bacteria): (-) (slight growth (1-10 colonies))
[3]; 60 mg/l, culture diluted 1/1000 in Tyrode
  Growth (destruction of a mixed culture of bacteria): -
[3]; 60 mg/l, culture diluted 1/10000 in Tyrode
  Growth (destruction of a mixed culture of bacteria): -
[3]; 100 mg/l, culture diluted 1/1000 in Tyrode
  Growth (destruction of a mixed culture of bacteria): -
[3]; 100 mg/l, culture diluted 1/10000 in Tyrode
  Growth (destruction of a mixed culture of bacteria): -
Aspergillus niger
  MIC against fungi, strain K: 2 mg/L
Aspergillus phoenicis
  MIC against fungi, strain L: 10 mg/L
Penicillium funiculosum
  MIC against fungi, strain M: 10 mg/L
Alternaria alternata
  MIC against fungi, strain N: 5 mg/L
[2]
  MIC against fungi, strain O: 2 mg/L
Candida albicans
  MIC against fungi, strain P: 5 mg/L
Endomyces geotrichum
  MIC against fungi, strain Q: 5 mg/L
Aureobasidium pullulans
  MIC against fungi, strain R: 2 mg/L
Chaetomium globosum
  MIC against fungi, strain S: 2 mg/L
Chlorella vulgaris
  Growth on the agar (algae-destroying action): --
  Growth in the medium (growth inhibition): --
[4]
  Destruction, 5 mg/liter: yes
[5]
  MIC: 0.5 mg/L
Artemia salina; 0,5 mg/l, 6 hours
  Action against Artemia salina: 1-2
Artemia salina; 0,5 mg/l, 24 hours
  Action against Artemia salina: 2
Artemia salina; 0,5 mg/l, 48 hours
  Action against Artemia salina: 3
Artemia salina; 0,25 mg/l, 6 hours
  Action against Artemia salina: 0-1
Artemia salina; 0,25 mg/l, 24 hours
  Action against Artemia salina: 2
Artemia salina; 0,25 mg/l, 48 hours
  Action against Artemia salina: 2-3
Artemia salina; 1 mg/l, 6 hours
  Action against Artemia salina: 2
Artemia salina; 1 mg/l, 24 hours
  Action against Artemia salina: 3
Artemia salina; 1 mg/l, 48 hours
  Action against Artemia salina: 3
Artemia salina; 2,5 mg/l, 6 hours
  Action against Artemia salina: 2-3
Artemia salina; 2,5 mg/l, 24 hours
  Action against Artemia salina: 3
Artemia salina; 2,5 mg/l, 48 hours
  Action against Artemia salina: 3
